Measurements from patent publication US20250312341A1, “METHODS FOR TREATING PATIENTS WITH LOCALLY ADVANCED AND/OR METASTATIC SOLID TUMORS USING A DGK ZETA INHIBITOR” (ASTELLAS PHARMA INC., priority 2022, published 2025).

Experiments:
[1] = test system: syngeneic mouse models (inflamed tumor and TIL-poor tumor models); test: Antitumor efficacy in syngeneic mouse tumor models; assay type: in vivo
[2] = test system: peripheral blood mononuclear cells (PBMCs); test: Preclinical in vitro CD69 expression by PBMCs after TCR mediated stimulation; assay type: cell-based; settings: after the TCR mediated stimulation
Description: The whole blood samples will be collected from the treated patients to evaluate pharmacodynamics effects of the Compound I. The preclinical in vitro studies have identified CD69 expression by peripheral blood mononuclear cells (PBMCs) as the best pharmacodynamic biomarker candidate. The CD69 is early activation biomarker expressed by many immune cells including T-cells. […] To evaluate the pharmacodynamics effect of Compound I, the PBMCs will be isolated and stimulated in vitro by CD3/CD28; the expression of the CD69 will be measured by flow cytometry.

DGKζ = DGKζ (Homo sapiens, UniProt Q13574); test: Nonclinical pharmacology: inhibition of DGKζ activity; assay type: biochemical; settings: nonclinical pharmacology studies
[3] = Nonclinical safety assessments; assay type: in vivo
T cell = test: Nonclinical pharmacology: DAG downstream pathway and T cell activation upon TCR stimulation; assay type: cell-based
[4] = 4-week repeated dose toxicity study in rats; assay type: in vivo
Method: (§1) Compound I has been tested in numerous preclinical studies. Data from the 4-week repeated dose toxicity study in rats and 4-week repeated dose toxicity study in cynomolgus monkeys determined STD10 in rats to be 30 mg/kg/day and the HNSTD in cynomolgus monkeys to be 3 mg/kg/day. Human equivalent doses based on body surface area conversion (conversion factors: 0.16 for rat, 0.32 for monkey) of the STD10 in rats and the HNSTD in cynomolgus monkeys are 4.8 mg/kg and 0.96 mg/kg, respectively. For a person of 60 kg body weight, one tenth of the rat STD10 is 28.8 mg (4.8 mg/kg× 1/10×60 kg) and one sixth of the HNSTD is 9.6 mg (0.96 mg/kg×⅙×60 kg). Cynomolgus monkey is the more sensitive species. Therefore, based on cynomolgus monkey HNSTD, the starting dose in human is judged to be 9.6 mg/participant once daily (QD) given orally (actual starting dose will be 10 mg based on 10 mg tablet strength).

[5] = 4-week repeated dose toxicity study in cynomolgus monkeys; assay type: in vivo
Method: as §1

Sequence of DGKζ (Q13574 whole entry, species assumed): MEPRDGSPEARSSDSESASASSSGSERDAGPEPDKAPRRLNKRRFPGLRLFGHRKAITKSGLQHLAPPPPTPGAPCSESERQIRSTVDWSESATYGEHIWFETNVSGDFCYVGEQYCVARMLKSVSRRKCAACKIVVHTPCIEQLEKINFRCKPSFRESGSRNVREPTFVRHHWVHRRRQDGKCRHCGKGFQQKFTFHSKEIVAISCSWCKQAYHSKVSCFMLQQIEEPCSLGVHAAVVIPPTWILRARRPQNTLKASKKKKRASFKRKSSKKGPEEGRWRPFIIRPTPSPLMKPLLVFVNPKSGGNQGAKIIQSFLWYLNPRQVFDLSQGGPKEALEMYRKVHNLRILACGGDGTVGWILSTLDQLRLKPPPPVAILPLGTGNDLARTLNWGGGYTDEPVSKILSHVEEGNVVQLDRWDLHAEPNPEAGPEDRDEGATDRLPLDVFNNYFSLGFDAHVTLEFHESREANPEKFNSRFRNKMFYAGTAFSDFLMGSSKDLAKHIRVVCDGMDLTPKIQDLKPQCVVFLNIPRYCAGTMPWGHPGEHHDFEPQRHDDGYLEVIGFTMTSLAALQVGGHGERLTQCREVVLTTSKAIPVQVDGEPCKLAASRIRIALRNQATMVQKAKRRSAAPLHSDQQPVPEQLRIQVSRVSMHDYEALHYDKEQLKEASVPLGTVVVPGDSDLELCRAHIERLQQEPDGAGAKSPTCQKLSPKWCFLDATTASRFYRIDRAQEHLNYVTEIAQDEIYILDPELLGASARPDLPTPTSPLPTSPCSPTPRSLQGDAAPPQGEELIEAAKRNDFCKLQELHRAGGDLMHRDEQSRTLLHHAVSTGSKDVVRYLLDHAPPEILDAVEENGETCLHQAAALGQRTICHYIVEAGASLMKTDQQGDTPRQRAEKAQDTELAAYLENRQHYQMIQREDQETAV

## CNC[C@H]1CN(c2c(NC(=O)c3ccn(-c4ccnnc4)n3)ccc(Oc3ccccc3F)c2C(F)(F)F)CCN1C [Compound I, N-[4-(2-Fluorophenoxy)-2-{(3S)-4-methyl-3-[(methylamino)methyl]piperazin-1-yl}-3-(trifluoromethyl)phenyl]-1-(pyridazin-4-yl)-1H-pyrazole-3-carboxamide]
[1]; anti-PD-1 poor-responsive syngeneic mouse models as well as responsive models
  Anti-tumor efficacy: demonstrated
[1]; oral administration, inflamed tumor and TIL-poor tumor models
  antitumor efficacy: demonstrated antitumor efficacy
[2]
  expression of CD69: induces increased expression of CD69
DGKζ
  DGKζ activity: inhibits DGKζ activity
[3]
  nonclinical safety findings: risk of effect on body weight, gastrointestinal tract, electrocardiogram (ECG) parameters, hemodynamic and body temperature, lymphohematopoietic system and reproductive toxicity
T cell
  activation of DAG downstream pathways and T cell activation: enhances activation of DAG downstream pathways as well as T cell activation
[4]; body surface area conversion, factor 0.16 for rat
  Human equivalent dose of the STD10 in rats: 4.8 mg/kg
[4]; rats, 4-week repeated dose
  STD10: 30 mg/kg/day
[5]; body surface area conversion, factor 0.32 for monkey
  Human equivalent dose of the HNSTD in cynomolgus monkeys: 0.96 mg/kg
[5]; cynomolgus monkeys, 4-week repeated dose
  HNSTD: 3 mg/kg/day
